Laboratory results: patent US11912693B2, “Compounds for modulating S1P1 activity and methods of using the same” (TREVENA, INC., priority 2017, dated 2024)

Tests used:
[1] = biological target: T1, human sphingosine-1-phosphate receptor 1 (S1P1) (Homo sapiens (Human), UniProt P21453); assay: β-Arrestin2 recruitment assay (PathHunter), S1P1 CHO-K1 cells; type: cell-based; settings: for Emax: CHO-K1, efficacy (SPAN) normalized to fingolimod, read-out: hS1P1 B-arrestin2 SPAN; for hS1P1 B-arrestin2 pEC50: β-arrestin2 recruitment, S1P1 CHO-K1 cells
Summary of the method: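 Enzyme-fragment complementation read-out: agonist-driven β-arrestin2 binding to ProLink-tagged human S1P1 in stable CHO-K1 cells restores β-galactosidase, measured 1 h at room temperature after a 60 min 37° C. compound incubation. Potency as pEC50, efficacy relative to fingolimod (SPAN).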
Target sequence in this assay (P21453 whole entry, looked up, the tested form may be a part): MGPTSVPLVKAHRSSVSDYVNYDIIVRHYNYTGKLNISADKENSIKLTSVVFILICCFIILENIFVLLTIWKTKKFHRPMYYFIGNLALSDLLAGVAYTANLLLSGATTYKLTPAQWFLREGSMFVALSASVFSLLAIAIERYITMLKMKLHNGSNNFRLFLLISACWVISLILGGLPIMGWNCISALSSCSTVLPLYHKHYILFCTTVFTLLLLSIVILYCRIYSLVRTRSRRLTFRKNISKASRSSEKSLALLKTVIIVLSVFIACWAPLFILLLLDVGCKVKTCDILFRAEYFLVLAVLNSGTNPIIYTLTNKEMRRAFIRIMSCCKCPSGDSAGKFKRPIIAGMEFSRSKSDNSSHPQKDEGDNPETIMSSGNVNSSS
Target sequence in this assay (P32121 whole entry partner, looked up, the tested form may be a part): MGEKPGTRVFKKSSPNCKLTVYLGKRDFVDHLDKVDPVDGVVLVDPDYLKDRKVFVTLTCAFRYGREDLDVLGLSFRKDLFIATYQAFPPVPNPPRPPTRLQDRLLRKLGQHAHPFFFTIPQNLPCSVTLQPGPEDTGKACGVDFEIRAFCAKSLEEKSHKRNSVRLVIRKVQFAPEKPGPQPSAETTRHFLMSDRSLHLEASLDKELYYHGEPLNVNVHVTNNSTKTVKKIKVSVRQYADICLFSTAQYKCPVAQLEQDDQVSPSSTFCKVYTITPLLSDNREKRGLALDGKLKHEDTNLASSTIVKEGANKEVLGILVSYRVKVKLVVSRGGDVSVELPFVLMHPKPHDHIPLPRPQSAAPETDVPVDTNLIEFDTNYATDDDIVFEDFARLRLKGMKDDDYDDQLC

[2] = biological target: T1, human sphingosine-1-phosphate receptor 1 (S1P1); assay: Inhibition of cAMP production (HTRF cAMP HiRange), S1P1 CHO-K1 cells; type: cell-based; settings: for Emax: CHO-K1, efficacy (SPAN) normalized to fingolimod, read-out: hS1P1 cAMP SPAN; for hS1P1 cAMP pEC50: inhibition of cAMP production, S1P1 CHO-K1 cells
Summary of the method: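 CHO-K1 cells stably co-expressing human S1P1 (C-terminal Prolink tag) and EA-β-arrestin2 were grown in AssayComplete Media 6 at 37° C. and 5% CO2, plated, and incubated overnight. Agonist-driven inhibition of intracellular cAMP was read by TR-FRET with the HTRF cAMP HiRange kit on a PheraStar reader. Potency is pEC50, and efficacy (SPAN) is normalized to fingolimod.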
Target sequence in this assay (P21453 whole entry, looked up, the tested form may be a part): as the sequence (P21453 whole entry, looked up, the tested form may be a part) above

SMILES	Emax [1]	hS1P1 B-arrestin2 pEC50 [1]	Emax [2]	hS1P1 cAMP pEC50 [2]
COc1ccccc1-c1nc(-c2ccc3c(c2)nnn3C(C)(C)CO)no1 [Compound 623, 2-(5-(5-(2-methoxyphenyl)-1,2,4-oxadiazol-3-yl)-1H-benzo[d][1,2,3]triazol-1-yl)-2-methylpropan-1-ol]	> 75%	<5	> 75%	<6.5
CCC1(CC)CC(=O)c2cc(-c3nc(-c4ncccn4)no3)ccc2O1 [Compound 640, 2,2-diethyl-6-(3-(pyrimidin-2-yl)-1,2,4-oxadiazol-5-yl)chroman-4-one]	–	<5	–	<6.5
Brc1ccccc1-c1nc(-c2ccc3c(c2)nnn3Cc2ccccn2)no1 [Compound 45, 5-(2-bromophenyl)-3-(1-(pyridin-2-ylmethyl)-1H-benzo[d][1,2,3]triazol-5-yl)-1,2,4-oxadiazole]	–	<5	–	<6.5
CCc1ncc(-c2noc(-c3ccc4c(c3)nnn4C(C)C)n2)cn1 [Compound 135, 5-[3-(2-ethylpyrimidin-5-yl)-1,2,4-oxadiazol-5-yl]-1-(propan-2-yl)-1H-1,2,3-benzotriazole]	< 75%	<5	< 75%	<6.5
CC(C)n1ncc2cc(-c3nc(-c4ccccc4Br)no3)ccc21 [Compound 332, 3-(2-bromophenyl)-5-(1-isopropyl-1H-indazol-5-yl)-1,2,4-oxadiazole]	> 75%	>5	> 75%	>6.5
CC(C)Oc1ccc(-c2nc(-c3ccc4c(c3)nnn4C(C)C)no2)cc1C(F)(F)F [Compound 246, 5-(4-isopropoxy-3-(trifluoromethyl)phenyl)-3-(1-isopropyl-1H-benzo[d][1,2,3]triazol-5-yl)-1,2,4-oxadiazole]	–	>5	–	>6.5
CC(C)n1ncc2cc(-c3nc(-c4ccccc4Cl)no3)ccc21 [Compound 330, 3-(2-chlorophenyl)-5-(1-isopropyl-1H-indazol-5-yl)-1,2,4-oxadiazole]	> 75%	>5	> 75%	>6.5
Cc1ccccc1-c1nsc(-c2ccc3c(ccn3C(C)C)c2)n1 [Compound 381, 5-[3-(2-methylphenyl)-1,2,4-thiadiazol-5-yl]-1-(propan-2-yl)-1H-indole]	–	>5	–	<6.5
CC1(C)CC(=O)c2cc(-c3nc(-c4cccnc4)no3)ccc2O1 [Compound 274, 2,2-dimethyl-6-[3-(pyridin-3-yl)-1,2,4-oxadiazol-5-yl]-3,4-dihydro-2H-1-benzopyran-4-one]	< 75%	>5	> 75%	<6.5
CC(C)n1nnc2cc(-c3noc(-c4ccccc4N)n3)ccc21 [Compound 576, 2-{3-[1-(propan-2-yl)-1H-1,2,3-benzotriazol-5-yl]-1,2,4-oxadiazol-5-yl}aniline]	< 75%	>5	> 75%	>6.5
CCC1(CC)C/C(=N\O)c2cc(-c3nc(-c4cccnc4)no3)ccc2O1 [Compound 431, N-[(4E)-2,2-diethyl-6-[3-(pyridin-3-yl)-1,2,4-oxadiazol-5-yl]-3,4-dihydro-2H-1-benzopyran-4-ylidene]hydroxylamine]	–	<5	–	<6.5
CC(C)n1nnc2cc(-c3ncc(-c4ccc(F)cc4)s3)ccc21 [Compound 37, 5-(4-fluorophenyl)-2-(1-isopropylbenzotriazol-5-yl)thiazole]	–	<5	–	<6.5
CC(C)n1nnc2cc(-c3nc4c(o3)CCc3sccc3-4)ccc21 [Compound 456, 4-[1-(propan-2-yl)-1H-1,2,3-benzotriazol-5-yl]-5-oxa-10-thia-3-azatricyclo[7.3.0.0^2,6]dodeca-1(9),2(6),3,11-tetraene]	> 75%	<5	> 75%	>6.5
Cc1ccccc1-c1noc(-c2ccc3c(c2)nnn3C2CCCCC2)n1 [Compound 245, 1-cyclohexyl-5-[3-(2-methylphenyl)-1,2,4-oxadiazol-5-yl]-1H-1,2,3-benzotriazole]	> 75%	>5	> 75%	<6.5
CC(C)n1nnc2cc(-c3noc(C4CCCCC4)n3)ccc21 [Compound 127, 5-(5-cyclohexyl-1,2,4-oxadiazol-3-yl)-1-(propan-2-yl)-1H-1,2,3-benzotriazole]	< 75%	<5	< 75%	<6.5
Cc1ccsc1-c1noc(-c2ccc3c(c2)nnn3CC2CC2)n1 [Compound 239, 1-(cyclopropylmethyl)-5-[3-(3-methylthiophen-2-yl)-1,2,4-oxadiazol-5-yl]-1H-1,2,3-benzotriazole]	< 75%	<5	< 75%	<6.5
O=C1CC2(CCCC2)Oc2ccc(-c3nc(-c4cccnc4)no3)cc21 [Compound 298, 6-[3-(pyridin-3-yl)-1,2,4-oxadiazol-5-yl]-3,4-dihydrospiro[1-benzopyran-2,1′-cyclopentane]-4-one]	–	>5	–	<6.5
CC(C)n1ccc2cc(-c3noc(-c4ccncc4F)n3)ccc21 [Compound 399, 5-(3-fluoropyridin-4-yl)-3-(1-isopropyl-1H-indol-5-yl)-1,2,4-oxadiazole]	–	>5	–	>6.5
CCC1(CC)CC(=O)c2cc(-c3nc(-c4ccccc4OC)no3)ccc2O1 [Compound 268, 2,2-diethyl-6-[3-(2-methoxyphenyl)-1,2,4-oxadiazol-5-yl]chroman-4-one]	–	>5	–	>6.5
Cc1cccc2oc(-c3ccc4c(c3)nnn4CC(C)C)nc12 [Compound 447, 2-(1-isobutyl-1H-benzo[d][1,2,3]triazol-5-yl)-4-methylbenzo[d]oxazole]	–	>5	–	>6.5
Cc1ccccc1-c1csc(-c2cnc3c(ccn3C(C)C)c2)n1 [Compound 407, 2-(1-isopropylpyrrolo[2,3-b]pyridin-5-yl)-4-(o-tolyl)thiazole]	–	<5	–	<6.5
Cc1ccccc1-c1cc(-c2ccc3c(c2)nnn3C(C)C)n(C)c1 [Compound 517, 5-[1-methyl-4-(2-methylphenyl)-1H-pyrrol-2-yl]-1-(propan-2-yl)-1H-1,2,3-benzotriazole]	< 75%	>5	< 75%	<6.5
C=CCNc1ccc(-c2nc(-c3ccc4c(c3)nnn4C(C)C)no2)cc1C#N [Compound 150, 2-(allylamino)-5-(3-(1-isopropyl-1H-benzo[d][1,2,3]triazol-5-yl)-1,2,4-oxadiazol-5-yl)benzonitrile]	> 75%	>5	> 75%	>6.5
COc1cc(NC(C)=O)ccc1-c1noc(-c2ccc3nonc3c2)n1 [Compound 533, N-{4-[5-(2,1,3-benzoxadiazol-5-yl)-1,2,4-oxadiazol-3-yl]-3-methoxyphenyl}acetamide]	–	<5	–	<6.5
Cn1nnc2cc(-c3noc(-c4ccccc4Br)n3)ccc21 [Compound 73, 5-(2-bromophenyl)-3-(1-methyl-1H-benzo[d][1,2,3]triazol-5-yl)-1,2,4-oxadiazole]	< 75%	>5	< 75%	<6.5
CC(C)(CO)n1nnc2cc(-c3noc(-c4cnccc4C(F)(F)F)n3)ccc21 [Compound 644, 2-methyl-2-(5-(5-(4-(trifluoromethyl)pyridin-3-yl)-1,2,4-oxadiazol-3-yl)-1H-benzo[d][1,2,3]triazol-1-yl)propan-1-ol]	> 75%	<5	> 75%	<6.5
Cc1ccc2nc(-c3ccc4c(c3)nnn4C(C)C)oc2c1 [Compound 420, 2-(1-isopropyl-1H-benzo[d][1,2,3]triazol-5-yl)-6-methylbenzo[d]oxazole]	> 75%	<5	> 75%	>6.5
CC(C)n1nnc2cc(-c3c[nH]c(-c4ccccc4)c3)ccc21 [Compound 543, 5-(5-phenyl-1H-pyrrol-3-yl)-1-(propan-2-yl)-1H-1,2,3-benzotriazole]	< 75%	<5	< 75%	>6.5
CCC1(CC)CC(=O)c2cc(-c3ncc(-c4ccccc4OC)cn3)ccc2O1 [Compound 594, 2,2-diethyl-6-(5-(2-methoxyphenyl)pyrimidin-2-yl)chroman-4-one]	–	>5	–	>6.5
c1ccc(-c2noc(-c3ccc4c(c3)nnn4C3CCCC3)n2)cc1 [Compound 7, 1-cyclopentyl-5-(3-phenyl-1,2,4-oxadiazol-5-yl)-1H-1,2,3-benzotriazole]	–	<5	–	<6.5
